Active and inactive are the calls of the source.
How the values were obtained:
[1] = Luminescence Cell-Based Dose Response to Identify Activators of 5'UTR Stem-Loop Driven Prion Protein mRNA Translation in H4-C Neuroglioblastoma Cells. [Related pubchem assays: 1829 (Project Summary), 1814 (Primary HTS)]; type: functional
[2] = Luminescence Cell-Based Dose Confirmation to Identify Activators of 5'UTR Stem-Loop Driven Alpha-Synuclein mRNA Translation in H4 Neuroglioblastoma Cells. [Related pubchem assays: 1829 (Project Summary), 1814 (Primary HTS)]; type: functional
[3] = test system: H4; assay: Luminescence Cell-Based Dose Response HTS to Identify Activators of 5'UTR Stem-Loop Driven Prion Protein mRNA Translation in H4 Neuroglioblastoma Cells. [Related pubchem assays: 1829 (Project Summary), 1814 (Primary HTS)]; type: functional; conditions: Homo sapiens
[4] = Luminescence Cell-Based Dose Response HTS to Identify Activators of Luciferase Translation or Activity in H4 […] Cells. [Related pubchem assays: 1829 (Project Summary), 1814 (Primary HTS)]; type: functional
[5] = Luminescence Cell-Based Dose Response to Identify Activators of Luciferase Translation or Activity in H4-C Neuroglioblastoma Cells. [Related pubchem assays: 1829 (Project Summary), 1814 (Primary HTS)]; type: functional
[6] = biological target: T1, DNA repair protein RAD52 homolog (Homo sapiens, UniProt P43351); type: functional, biochemical
T1 sequence (P43351 whole entry): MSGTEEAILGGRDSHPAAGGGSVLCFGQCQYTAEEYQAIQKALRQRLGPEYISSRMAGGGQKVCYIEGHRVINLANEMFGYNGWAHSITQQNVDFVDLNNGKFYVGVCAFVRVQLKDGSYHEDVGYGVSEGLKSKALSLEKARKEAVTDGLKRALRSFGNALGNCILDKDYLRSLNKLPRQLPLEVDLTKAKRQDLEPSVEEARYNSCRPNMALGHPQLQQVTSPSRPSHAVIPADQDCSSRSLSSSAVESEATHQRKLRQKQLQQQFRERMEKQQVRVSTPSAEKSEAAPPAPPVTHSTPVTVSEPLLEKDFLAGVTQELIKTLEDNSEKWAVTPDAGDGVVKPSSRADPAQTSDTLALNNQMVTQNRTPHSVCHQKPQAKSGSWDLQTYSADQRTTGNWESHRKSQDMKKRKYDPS

[7] = biological target: T2, High affinity choline transporter 1 (Homo sapiens, UniProt Q9GZV3); assay: CHT inhibitors, dose response, cell-based, 5-point CRC, membrane potential dye (AID 504840); type: functional
T2 sequence (Q9GZV3 whole entry): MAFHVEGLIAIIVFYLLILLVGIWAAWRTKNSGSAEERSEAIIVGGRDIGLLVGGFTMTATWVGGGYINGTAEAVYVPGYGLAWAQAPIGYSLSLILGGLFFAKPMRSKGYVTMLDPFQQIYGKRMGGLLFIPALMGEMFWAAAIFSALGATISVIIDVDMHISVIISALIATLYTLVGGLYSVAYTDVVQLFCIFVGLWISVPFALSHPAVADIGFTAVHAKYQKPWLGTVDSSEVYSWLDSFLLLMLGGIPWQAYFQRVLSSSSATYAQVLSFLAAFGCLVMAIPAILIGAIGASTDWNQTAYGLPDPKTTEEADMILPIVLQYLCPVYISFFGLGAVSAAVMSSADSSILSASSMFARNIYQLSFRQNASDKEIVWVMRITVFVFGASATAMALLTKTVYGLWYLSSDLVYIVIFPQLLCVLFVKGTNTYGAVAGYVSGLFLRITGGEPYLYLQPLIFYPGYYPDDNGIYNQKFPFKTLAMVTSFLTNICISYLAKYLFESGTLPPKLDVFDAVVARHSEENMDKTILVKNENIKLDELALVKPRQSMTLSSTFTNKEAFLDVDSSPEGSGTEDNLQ

[8] = biological target: Nonstructural protein 1 (Influenza A virus, UniProt Q194T2); type: functional, Influenza A virus (A/California/07/2009(H1N1))
[9] = inhibitors of intracellular T. cruzi replication, confirmation, NIH3T3 host cells, beta-gal luminescence (AID 2044); type: functional, cell-based;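 also: intracellular parasites grown in NIH/3T3 mouse fibroblasts as host cells; luminescent beta-galactosidase reporter signal from transgenic T. cruzi replicating inside host cells; inhibitors lower the luminescence signal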
[10] = cytotoxicity toward NIH3T3 fibroblasts, dose response, counter-screen, cell-based, ATP luminescence, mouse fibroblasts (AID 2010); type: functional;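 also: cells exposed to compound for about 90 hours before reading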
[11] = biological target: T3, Heat shock factor protein 1 (Mus musculus, UniProt P38532); assay: inhibition of MG132-induced HSE-luciferase signal, confirmation, cell-based, NIH3T3, luminescence, dose retest (AID 2382); type: functional;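 also: NIH3T3 fibroblasts with HSF1-driven luciferase reporter stressed by proteasome inhibitor MG132; luminescence from HSF1-driven luciferase expression after 8 hours of MG132 stress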
T3 sequence (P38532 whole entry): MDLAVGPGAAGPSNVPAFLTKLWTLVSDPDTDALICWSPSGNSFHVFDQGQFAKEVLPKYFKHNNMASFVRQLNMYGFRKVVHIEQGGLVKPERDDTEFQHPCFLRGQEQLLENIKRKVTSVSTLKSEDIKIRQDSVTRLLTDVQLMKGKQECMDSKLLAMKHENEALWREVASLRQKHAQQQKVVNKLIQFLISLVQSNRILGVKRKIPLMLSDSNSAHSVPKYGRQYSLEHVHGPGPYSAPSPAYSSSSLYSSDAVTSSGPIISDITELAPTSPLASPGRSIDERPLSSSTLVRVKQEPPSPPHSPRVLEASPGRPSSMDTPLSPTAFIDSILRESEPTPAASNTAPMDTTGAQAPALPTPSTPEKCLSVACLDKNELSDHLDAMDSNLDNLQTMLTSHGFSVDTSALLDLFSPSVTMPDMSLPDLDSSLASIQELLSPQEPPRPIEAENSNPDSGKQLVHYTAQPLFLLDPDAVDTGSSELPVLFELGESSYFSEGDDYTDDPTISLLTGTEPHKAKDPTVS

[12] = biological target: T4, Long-chain-fatty-acid--AMP ligase FadD28 (Mycobacterium tuberculosis, UniProt P9WQ59); assay: Fluorescence polarization aasay to screen for inhibitors that compete for the binding of FadD28 to a bisubstrate Measured in Biochemical System Using Plate Reader - 2147-01_Inhibitor_Dose_CherryPick_Activity.; type: functional, Mycobacterium tuberculosis H37Rv
T4 sequence (P9WQ59 whole entry): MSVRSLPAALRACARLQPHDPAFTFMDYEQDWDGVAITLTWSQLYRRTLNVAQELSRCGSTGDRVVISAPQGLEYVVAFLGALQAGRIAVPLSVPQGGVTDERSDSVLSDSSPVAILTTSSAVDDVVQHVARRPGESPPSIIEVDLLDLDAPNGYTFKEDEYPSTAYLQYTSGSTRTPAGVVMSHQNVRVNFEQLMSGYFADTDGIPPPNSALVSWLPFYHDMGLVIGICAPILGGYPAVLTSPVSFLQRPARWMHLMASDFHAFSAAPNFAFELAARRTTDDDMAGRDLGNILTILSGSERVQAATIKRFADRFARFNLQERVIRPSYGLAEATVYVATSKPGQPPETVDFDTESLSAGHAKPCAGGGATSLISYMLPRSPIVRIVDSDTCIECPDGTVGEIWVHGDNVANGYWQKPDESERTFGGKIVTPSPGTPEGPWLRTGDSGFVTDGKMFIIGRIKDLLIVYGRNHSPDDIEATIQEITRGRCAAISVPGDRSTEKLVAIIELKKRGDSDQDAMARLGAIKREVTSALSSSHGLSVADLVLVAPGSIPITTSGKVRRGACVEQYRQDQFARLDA

[13] = biological target: Large T antigen (Simian virus 40, UniProt P03070); type: functional, Betapolyomavirus macacae;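 also: Confirmatory-stage PubChem screen for compounds that inhibit SV40 T antigen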
[14] = biological target: Induced myeloid leukemia cell differentiation protein Mcl-1 (Homo sapiens, UniProt Q07820); type: functional
[15] = growth suppression of PTEN-null colon cells, dose response, cell-based, HCT116 PTEN knockout (AID 1047); type: functional;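 also: HCT116 colon tumor cells with PTEN knocked out; cells exposed to compound for 60 hours before readout; potency for loss of cell viability measured by luminescence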
[16] = off-target signal loss in HeLa-CEM21 co-culture – HeLa F-luc CTL cells, cherry-picked, counter-screen for HIV-1 Env fusion inhibitor project, dose response (AID 652040); type: functional, cell-based;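 also: potency for signal decrease marking cytotoxic or nonspecific inhibition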
[17] = ZM109 Env clade C HIV-1 fusion inhibitors, dose response, HeLa effector, CEM target cells, luciferase, cherry-pick (AID 652058); type: functional, cell-based
[18] = growth suppression of beta-catenin-knockout colon cells, dose response, cell-based, HCT116, human colon tumor (AID 1045); type: functional;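 also: HCT116 colon tumor cells with beta catenin knocked out; cells exposed to compound for 60 hours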
[19] = inhibitors of HIV Env-driven cell fusion, dose response, cherry-pick (AID 652057); type: functional, cell-based
[20] = inhibitors of clade B AD8 Env fusion, dose response, cell-based, cherry-pick (AID 652062); type: functional;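 also: luciferase signal from cell-cell fusion driven by HIV-1 clade B AD8 Env; potency is for inhibitors of fusion seen as a drop in luminescence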

Induced myeloid leukemia cell differentiation protein Mcl-1, sequence (Q07820 whole entry): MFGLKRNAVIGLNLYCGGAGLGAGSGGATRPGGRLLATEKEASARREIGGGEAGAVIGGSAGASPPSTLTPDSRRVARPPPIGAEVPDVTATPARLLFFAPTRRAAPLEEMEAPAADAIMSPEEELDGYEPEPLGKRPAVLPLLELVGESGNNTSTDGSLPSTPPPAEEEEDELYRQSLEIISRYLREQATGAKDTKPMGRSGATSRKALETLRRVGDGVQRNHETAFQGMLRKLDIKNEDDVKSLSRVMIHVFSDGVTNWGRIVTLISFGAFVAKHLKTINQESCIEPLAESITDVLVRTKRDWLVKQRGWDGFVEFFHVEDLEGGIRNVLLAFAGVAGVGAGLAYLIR
Large T antigen, sequence (P03070 whole entry): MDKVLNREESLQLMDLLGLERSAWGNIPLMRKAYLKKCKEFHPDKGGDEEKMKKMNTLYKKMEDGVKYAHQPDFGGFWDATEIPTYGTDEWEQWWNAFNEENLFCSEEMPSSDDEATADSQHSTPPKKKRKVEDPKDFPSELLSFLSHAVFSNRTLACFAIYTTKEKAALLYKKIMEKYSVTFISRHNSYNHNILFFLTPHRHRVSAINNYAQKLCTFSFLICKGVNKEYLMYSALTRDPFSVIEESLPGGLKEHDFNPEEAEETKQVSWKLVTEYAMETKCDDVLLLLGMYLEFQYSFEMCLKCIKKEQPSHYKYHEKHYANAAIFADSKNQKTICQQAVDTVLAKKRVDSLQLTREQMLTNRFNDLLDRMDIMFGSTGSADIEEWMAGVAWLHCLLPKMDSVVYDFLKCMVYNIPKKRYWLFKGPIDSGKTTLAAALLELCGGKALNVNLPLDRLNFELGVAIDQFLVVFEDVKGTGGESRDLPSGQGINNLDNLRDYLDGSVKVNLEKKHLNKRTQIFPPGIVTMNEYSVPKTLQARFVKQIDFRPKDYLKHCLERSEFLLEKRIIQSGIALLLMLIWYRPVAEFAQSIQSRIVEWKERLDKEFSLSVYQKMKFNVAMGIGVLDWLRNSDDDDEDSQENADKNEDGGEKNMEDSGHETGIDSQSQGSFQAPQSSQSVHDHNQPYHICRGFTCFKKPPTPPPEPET
Nonstructural protein 1, sequence (Q194T2 whole entry): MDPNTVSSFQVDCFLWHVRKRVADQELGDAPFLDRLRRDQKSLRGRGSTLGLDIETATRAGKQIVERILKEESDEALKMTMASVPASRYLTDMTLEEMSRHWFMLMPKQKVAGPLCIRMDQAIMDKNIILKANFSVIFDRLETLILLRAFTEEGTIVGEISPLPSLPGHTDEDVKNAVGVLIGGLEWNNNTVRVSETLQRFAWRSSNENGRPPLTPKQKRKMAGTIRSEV

COc1ccc(N=C(S)Nc2cc(C)ccn2)c(OC)c1
EC50 [1]: 0.393 µM (active)
EC50 [2]: 0.256 µM (active)
EC50 [3]: > 120 µM (not active)
EC50 [4]: < 0.1 µM (inconclusive)
EC50 [5]: > 12 µM (not active)

O=C(/C=C/c1cn(-c2ccccc2)nc1-c1ccc2c(c1)OCCO2)NCCCN1CCOCC1
AC50 [6]: 16.1 µM (active)
IC50 [7]: 20 µM (active)

CCOc1cccc(=NC2CCCCC2)c2c(C)[nH]c(C)c12
IC50 [8]: 68.8 µM (active)
AC50 [6]: 3.49 µM (active)

COc1ccc(N2CCc3c(C)nc4c(OC)cc(OC)cc4c32)cc1
AC50 [6]: 3.96 µM (active)
EC50 [9]: 0.97 µM (active)
EC50 [10]: 36.5 µM (active)

CCS(=O)(=O)c1nc(S(=O)(=O)c2ccc(C)cc2)c(N2CC(C)OC(C)C2)s1 (stereo unspecified)
EC50 [1]: > 12 µM (not active)
EC50 [2]: 0.81 µM (active)
EC50 [3]: > 120 µM (not active)
EC50 [4]: < 0.1 µM (active)
EC50 [5]: > 12 µM (not active)

COc1cccc(NC(=O)Cn2c(=O)oc3cc(S(=O)(=O)N4CCCC4)ccc32)c1
EC50 [11]: > 195 µM (not active)
AC50 [12]: 44.5 µM (active)

O=C(NCc1ccccc1)c1cnc2cc3c(cc2c1O)OCCO3
EC50 [1]: 0.421 µM (active)
EC50 [2]: 0.2 µM (active)
EC50 [3]: 0.282 µM (active)
EC50 [4]: < 0.1 µM (active)
EC50 [5]: 0.334 µM (active)

CN(C)c1ccc(Nc2nc(N)c([N+](=O)[O-])c(N3CCOCC3)n2)cc1
IC50 [13]: 3.84 µM (active)
IC50 [14]: 0.8 µM (active)

Nc1c(S(=O)(=O)c2cccs2)c2nc3ccccc3nc2n1CCc1ccccc1
EC50 [15]: 27 µM (active)
AC50 [16]: 12.7 µM (active)
AC50 [17]: 9.26 µM (active)
EC50 [18]: 30 µM (active)
AC50 [19]: 9.23 µM (active)

COc1ccc(CN2CCC(C)(Oc3ccc4c(c3)OCO4)C2)c2ccccc12 (stereo unspecified)
AC50 [20]: 10.1 µM (active)
AC50 [16]: 12.2 µM (active)
AC50 [17]: 10.1 µM (active)
AC50 [19]: 6.46 µM (active)

C[C@H]1CN([C@@H](C)CO)C(=O)Cc2cc(NC(=O)Cc3cn(C)c4ccccc34)ccc2O[C@H]1CN(C)S(=O)(=O)c1ccccc1
AC50 [20]: 23.5 µM (active)
AC50 [17]: 9.19 µM (active)
AC50 [19]: 12.7 µM (active)

CCc1nc2ccc(C(=O)NCCN3CCNC3=O)cn2c1N(CC)Cc1cccc(Br)c1
AC50 [20]: 3.08 µM (active)
AC50 [16]: 1.85 µM (active)
AC50 [17]: 1.74 µM (active)
AC50 [19]: 1.18 µM (active)

CN(C[C@@H](CC1CCCCC1)N(C[C@H](Cc1ccccc1)N(CCc1ccccc1)N=O)N=O)N=O
AC50 [20]: 42.9 µM (active)
AC50 [16]: 6.56 µM (active)
AC50 [17]: 8.38 µM (active)
AC50 [19]: 5.14 µM (active)

O=C(N/N=C/c1ccc2c(c1)OCO2)c1ccc(Br)o1
EC50 [1]: 0.855 µM (active)
EC50 [2]: 0.371 µM (active)
EC50 [3]: 18.6 µM (inconclusive)
EC50 [4]: < 0.1 µM (inconclusive)
EC50 [5]: 0.433 µM (active)

From ChEMBL document CHEMBL1201862, “PubChem BioAssay data set” (2004)
